Holding throughout (assay type): biochemical
The target of one assay is T1, TF/VIIa (Homo sapiens, UniProt P08709).
T1 construct: recombinant human factor VIIa
In words: Factor VIIa/TF inhibitory assay (chromogenic substrate, OD 405 nm). The conditions noted are these: recombinant human factor VIIa with recombinant soluble tissue factor. Here is the method: To determine inhibitory activity, the compound having structure (1) was combined with recombinant human factor VIIa in black clear bottom well plates followed by a 10 minute room temperature incubation. Recombinant soluble tissue factor was then added followed by a 15 minute room temperature incubation. Finally, chromozymen tPA substrate was added and the plates were immediately read at 405 nm to determine background absorbance. After incubation, the rate of hydrolysis of the substrate was measured by monitoring the reaction at 405 nm for the release of p-nitroaniline. Percent inhibition of TF/VIIa activity was calculated from OD 405 nm value from the experimental and control sample. All hits 50% of control and less were confirmed and requested for IC50 values.
(§1) An aliquot of sample was injected onto C18 reversed-phase column with flow rate of 1 mL/min. Mass spectra were recorded from 150 to 1000 amu in both positive and negative modes using electrospray ionization. A splitter was attached immediately after the HPLC column so that a fraction of the eluent was directed towards the electrospray source. The remaining fraction was collected in deep-well plates. The plates were dried overnight and biassayed.

The target in a further assay is T2, Thrombin (Homo sapiens, UniProt P00734).
T2 construct: Xa with factor Va converts prothrombin (II) to thrombin (IIa)
Nature of the assay: HPLC-PDA-MS-bioassay, thrombin inhibition. Here is the method: as §1

A further assay addresses Xa (Homo sapiens, UniProt P00742). In words: HPLC-PDA-MS-bioassay, factor Xa inhibition. Here is the method:
as §1

The test system of the next assay is Trypsin. In words: HPLC-PDA-MS-bioassay, trypsin inhibition. As for the experimental part:
as §1

Xa, sequence (P00742 41-179 limits assumed): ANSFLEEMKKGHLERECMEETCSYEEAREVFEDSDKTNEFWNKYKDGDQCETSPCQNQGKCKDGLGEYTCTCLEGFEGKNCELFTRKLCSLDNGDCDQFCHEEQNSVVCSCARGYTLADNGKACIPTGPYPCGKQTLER
Xa, sequence (P00742 235-488 limits assumed): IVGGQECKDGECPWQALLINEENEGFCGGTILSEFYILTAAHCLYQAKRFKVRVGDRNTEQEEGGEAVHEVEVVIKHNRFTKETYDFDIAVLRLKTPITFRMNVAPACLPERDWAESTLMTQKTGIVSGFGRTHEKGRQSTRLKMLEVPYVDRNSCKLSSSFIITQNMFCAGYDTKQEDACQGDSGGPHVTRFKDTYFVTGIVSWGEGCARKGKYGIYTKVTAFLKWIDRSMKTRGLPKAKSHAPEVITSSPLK
T1 sequence (P08709 61-212 limits assumed): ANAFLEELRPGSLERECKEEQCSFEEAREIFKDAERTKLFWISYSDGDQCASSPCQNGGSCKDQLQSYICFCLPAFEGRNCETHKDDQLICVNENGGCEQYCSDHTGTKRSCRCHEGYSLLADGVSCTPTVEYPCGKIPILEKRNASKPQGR
T1 sequence (P08709 213-466 limits assumed): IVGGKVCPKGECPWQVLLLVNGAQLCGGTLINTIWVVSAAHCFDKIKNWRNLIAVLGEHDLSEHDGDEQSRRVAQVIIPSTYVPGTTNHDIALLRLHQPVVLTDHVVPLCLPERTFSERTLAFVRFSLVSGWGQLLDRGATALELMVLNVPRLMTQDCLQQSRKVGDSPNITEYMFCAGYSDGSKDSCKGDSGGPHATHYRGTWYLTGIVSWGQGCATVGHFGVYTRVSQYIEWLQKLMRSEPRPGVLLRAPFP
T1 sequence (P13726 33-251 partner limits assumed): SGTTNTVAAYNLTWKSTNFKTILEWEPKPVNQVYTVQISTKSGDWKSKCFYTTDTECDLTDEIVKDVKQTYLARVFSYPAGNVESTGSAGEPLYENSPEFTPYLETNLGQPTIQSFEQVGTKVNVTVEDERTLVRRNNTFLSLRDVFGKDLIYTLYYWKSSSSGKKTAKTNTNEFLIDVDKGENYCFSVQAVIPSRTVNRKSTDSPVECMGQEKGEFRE

By IC50 is commonly meant the concentration that gives 50% inhibition. `COC(COS(=O)(=O)O)C(=O)NC(C(=O)N1C(C(=O)NCCC2=CCN(C(=N)N)C2)CC2CC(O)C(O)CC21)C(Cl)C(C)C` (stereo not shown) [Structure 1]: the IC50 turned out to be 9 nM on TF/VIIa, 4 nM on Thrombin, 200 nM against Xa and 37 nM with Trypsin.

The values are drawn from patent US6939565B2, “Protease inhibitors of the coagulation cascade isolated from Dysidea sponges” (Pharmacia Corporation, priority 2001, dated 2005).
